In patent US10472346B2, “Potent gamma-secretase modulators” (The General Hospital Coporation, priority 2014, dated 2019):

Test system: Aβ42
Assay: Aβ42 IC50 assay (SHSYSY-APP cell-based screening, UCSD sandwich Aβ42 ELISA)
Description: FIG. 8: Representative concentration response curves of Compound 1 using our primary and orthogonal medium throughput SHSYSY-APP cell-based screening assays (10). Compounds are first screened two times in triplicate in our UCSD sandwich Aβ42 ELISA on sequential days and the average of the two assays must be within 3-fold of each other before being entered into the CDD relational database. The UCSD sandwich ELISA assay can easily handle 20 compounds per week. Compounds with Aβ42 IC50 values <100 nM continue through the testing funnel. The Z′ score and the % CV for the UCSD Aβ42 sandwich ELISA assay are 0.8 and 4, respectively. For the Meso Scale triplex assay the Z′ scores are 0.7, 0.9 and 0.6 Aβ42, Aβ40 and Aβ38, respectively and the % CV's are 7, 2 and 1 for Aβ42, Aβ40 and Aβ38, respectively. Aβ total peptides are measured using a sandwich ELISA.
Tabular Results of A1142 Assays Conducted on Compounds of Examples 5-102. Assays are Aβ42 IC50 (nM).

Row | SMILES | IC50 [nM]
1 | COc1nc(-c2cc(C)c(N[C@@H](C)c3ccccn3)nn2)ccc1-n1cnc(C)c1 [Example 67, (S)-6-(6-methoxy-5-(4-methyl-1H-imidazol-1-yl)pyridin-2-yl)-4-methyl-N-(1-(pyridin-2-yl)ethyl)pyridazin-3-amine] | 95
2 | COc1nc(-c2cc(C)c(N[C@@H](C)c3cccc(Cl)c3)nn2)ccc1-n1cnc(C)c1 [Example 33, (S)—N-(1-(3-chlorophenyl)ethyl)-6-(6-methoxy-5-(4-methyl-1H-imidazol-1-yl)pyridin-2-yl)-4-methylpyridazin-3-amine] | 6.8
3 | COc1nc(-c2cc(C)c(N(C)[C@@H](C)c3ccc(F)cc3)nn2)ccc1-n1cnc(C)c1 [Example 19, (S)—N-(1-(4-fluorophenyl)ethyl)-6-(6-methoxy-5-(4-methyl-1H-imidazol-1-yl)pyridin-2-yl)-N,4-dimethylpyridazin-3-amine] | 240
4 | COc1nc(-c2cc(C)c(N[C@@H](C)c3cccc(C)c3)nn2)ccc1-n1cnc(C)c1 [Example 48, (S)-6-(6-methoxy-5-(4-methyl-1H-imidazol-1-yl)pyridin-2-yl)-4-methyl-N-(1-(m-tolyl)ethyl)pyridazin-3-amine] | 6.3
5 | CC[C@H](Nc1nnc(-c2ccc(-n3cnc(C)c3)c(OC)n2)cc1C)c1ccccc1F [Example 88, (S)—N-(1-(2-fluorophenyl)propyl)-6-(6-methoxy-5-(4-methyl-1H-imidazol-1-yl)pyridin-2-yl)-4-methylpyridazin-3-amine] | 12
6 | CCc1cc(-c2ccc(-n3cnc(C)c3)c(OC)n2)nnc1NCc1ccc(F)cc1 [Example 8, 4-ethyl-N-(4-fluorobenzyl)-6-(6-methoxy-5-(4-methyl-1H-imidazol-1-yl)pyridin-2-yl)pyridazin-3-amine] | 33
7 | COc1nc(-c2nnc(N[C@@H](C)c3ccc(F)cc3)cc2C)ccc1-n1cnc(C)c1 [Example 27, (S)—N-(1-(4-fluorophenyl)ethyl)-6-(6-methoxy-5-(4-methyl-1H-imidazol-1-yl)pyridin-2-yl)-5-methylpyridazin-3-amine] | 21
8 | COc1nc(-c2cc(C)c(NC3CCC(F)(F)CC3)nn2)ccc1-n1cnc(C)c1 [Example 85, N-(4,4-difluorocyclohexyl)-6-(6-methoxy-5-(4-methyl-1H-imidazol-1-yl)pyridin-2-yl)-4-methyl pyridazin-3-amine] | 70
9 | COc1nc(-c2cc(C)c(NC3(c4ccc(F)cc4)CC3)nn2)ccc1-n1cnc(C)c1 [Example 60, N-(1-(4-fluorophenyl)cyclopropyl)-6-(6-methoxy-5-(4-methyl-1H-imidazol-1-yl)pyridin-2-yl)-4-methylpyridazin-3-amine] | 12
10 | COc1nc(-c2cc(C)c(N[C@@H](C)c3cccc(C)c3C)nn2)ccc1-n1cnc(C)c1 [Example 100, (S)—N-(1-(2,3-dimethylphenyl)ethyl)-6-(6-methoxy-5-(4-methyl-1H-imidazol-1-yl)pyridin-2-yl)-4-methylpyridazin-3-amine] | 4
11 | COc1nc(-c2ccc(N[C@@H](C)c3ccccc3)nn2)ccc1-n1cnc(C)c1 [Example 22, (S)-6-(6-methoxy-5-(4-methyl-1H-imidazol-1-yl)pyridin-2-yl)-N-(1-phenylethyl)pyridazin-3-amine] | 16
12 | CC[C@H](C)Nc1nnc(-c2ccc(-n3cnc(C)c3)c(OC)n2)cc1C [Example 63, (S)—N-(sec-butyl)-6-(6-methoxy-5-(4-methyl-1H-imidazol-1-yl)pyridin-2-yl)-4-methylpyridazin-3-amine] | 79
13 | COc1nc(-c2cc(C)c(N[C@@H](C)c3ccc(F)cc3C)nn2)ccc1-n1cnc(C)c1 [Example 69, (S)—N-(1-(4-fluoro-2-methylphenyl)ethyl)-6-(6-methoxy-5-(4-methyl-1H-imidazol-1-yl)pyridin-2-yl)-4-methylpyridazin-3-amine] | 4.5
14 | COc1nc(-c2cc(C(C)C)c(N[C@@H](C)c3ccc(F)cc3)nn2)ccc1-n1cnc(C)c1 [Example 11, (S)—N-(1-(4-fluorophenyl)ethyl)-4-isopropyl-6-(6-methoxy-5-(4-methyl-1H-imidazol-1-yl)pyridin-2-yl)pyridazin-3-amine] | 7.5
15 | COc1nc(-c2cc(C)c(N[C@@H](C)c3ccccc3C)nn2)ccc1-n1cnc(C)c1 [Example 55, (S)-6-(6-methoxy-5-(4-methyl-1H-imidazol-1-yl)pyridin-2-yl)-4-methyl-N-(1-(o-tolyl)ethyl)pyridazin-3-amine] | 3.3
16 | CCc1cc(-c2ccc(-n3cnc(C)c3)c(OC)n2)nnc1N[C@@H](C)c1ccccc1 [Example 7, (S)-4-ethyl-6-(6-methoxy-5-(4-methyl-1H-imidazol-1-yl)pyridin-2-yl)-N-(1-phenylethyl)pyridazin-3-amine] | 5.5
17 | COc1nc(-c2cc(C)c(N[C@@H](C)c3ccc(C)cc3)nn2)ccc1-n1cnc(C)c1 [Example 42, (S)-6-(6-methoxy-5-(4-methyl-1H-imidazol-1-yl)pyridin-2-yl)-4-methyl-N-(1-(p-tolyl)ethyl)pyridazin-3-amine] | 7.5
18 | COc1nc(-c2cc(C)c(N[C@@H](C)C(C)(C)C)nn2)ccc1-n1cnc(C)c1 [Example 76, (S)—N-(3,3-dimethylbutan-2-yl)-6-(6-methoxy-5-(4-methyl-1H-imidazol-1-yl)pyridin-2-yl)-4-methyl pyridazin-3-amine] | 29
19 | COc1nc(-c2cc(C(C)C)c(N[C@@H](C)c3ccccc3)nn2)ccc1-n1cnc(C)c1 [Example 14, (S)-4-isopropyl-6-(6-methoxy-5-(4-methyl-1H-imidazol-1-yl)pyridin-2-yl)-N-(1-phenylethyl)pyridazin-3-amine] | 7.2
20 | COc1nc(-c2nnc(N[C@@H](C)c3ccc(F)cc3)c(C)c2C)ccc1-n1cnc(C)c1 [Example 15, (S)—N-(1-(4-Fluorophenyl)ethyl)-6-(6-methoxy-5-(4-methyl-1H-imidazol-1-yl)pyridin-2-yl)-4,5-dimethylpyridazin-3-amine] | 67
21 | COc1nc(-c2cc(C)c(N[C@@H](C)CO)nn2)ccc1-n1cnc(C)c1 [Example 64, (S)-2-((6-(6-methoxy-5-(4-methyl-1H-imidazol-1-yl)pyridin-2-yl)-4-methylpyridazin-3-yl)amino) propan-1-ol] | > 10000
22 | CCc1cc(-c2ccc(-n3cnc(C)c3)c(OC)n2)nnc1N[C@H](C)c1ccccc1 [Example 9, (R)-4-ethyl-6-(6-methoxy-5-(4-methyl-1H-imidazol-1-yl)pyridin-2-yl)-N-(1-phenylethyl)pyridazin-3-amine] | 46
23 | COc1nc(-c2cc(C)c(N[C@@H](C)c3c(F)cc(F)cc3F)nn2)ccc1-n1cnc(C)c1 [Example 75, (S)-6-(6-methoxy-5-(4-methyl-1H-imidazol-1-yl)pyridin-2-yl)-4-methyl-N-(1-(2,4,6-trifluorophenyl)ethyl)pyridazin-3-amine] | 3.5
24 | COC[C@H](Nc1nnc(-c2ccc(-n3cnc(C)c3)c(OC)n2)cc1C)c1ccc(F)cc1 [Example 87, (R)—N-(1-(4-fluorophenyl)-2-methoxyethyl)-6-(6-methoxy-5-(4-methyl-1H-imidazol-1-yl)pyridin-2-yl)-4-methylpyridazin-3-amine] | 11.5
